Publication PMC7076388 (Pharmaceutics, 2020)
Each block holds one compound with its values, some of them ahead of it.

What was measured:
[1] = molecular target: T1, LOX from glycine max (soybean) (Glycine max, UniProt P08170); test: Lipoxygenase glycine max (soybean) assay; format: biochemical; details: for LOX inhibition at single concentration: 100 µM; for IC50: dose-response assay, read-out: IC50 for LOX inhibition
T1 construct: purchased Sigma-Aldrich
T1 sequence (P08170 1-839): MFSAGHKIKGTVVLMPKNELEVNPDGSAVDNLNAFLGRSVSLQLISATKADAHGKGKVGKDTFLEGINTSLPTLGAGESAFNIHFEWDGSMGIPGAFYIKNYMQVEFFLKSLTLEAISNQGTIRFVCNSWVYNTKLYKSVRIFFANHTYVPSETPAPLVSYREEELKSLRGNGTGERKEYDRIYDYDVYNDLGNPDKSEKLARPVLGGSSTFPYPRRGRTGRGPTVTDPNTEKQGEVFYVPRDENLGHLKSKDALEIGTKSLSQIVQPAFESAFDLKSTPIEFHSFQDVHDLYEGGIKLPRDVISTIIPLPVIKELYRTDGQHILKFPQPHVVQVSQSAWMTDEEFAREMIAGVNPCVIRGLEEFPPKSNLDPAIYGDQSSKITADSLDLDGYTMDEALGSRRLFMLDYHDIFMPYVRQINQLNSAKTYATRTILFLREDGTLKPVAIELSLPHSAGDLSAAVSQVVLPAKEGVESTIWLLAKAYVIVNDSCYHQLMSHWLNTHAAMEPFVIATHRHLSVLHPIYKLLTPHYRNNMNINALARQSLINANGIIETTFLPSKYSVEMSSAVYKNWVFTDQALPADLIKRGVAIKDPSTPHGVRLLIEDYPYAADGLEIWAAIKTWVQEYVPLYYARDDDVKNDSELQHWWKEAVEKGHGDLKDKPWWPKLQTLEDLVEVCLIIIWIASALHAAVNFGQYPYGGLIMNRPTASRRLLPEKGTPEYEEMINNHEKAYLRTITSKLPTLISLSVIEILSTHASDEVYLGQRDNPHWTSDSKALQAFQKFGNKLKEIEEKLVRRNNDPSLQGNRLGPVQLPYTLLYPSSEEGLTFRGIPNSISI
Protocol: The inhibitory effect on LOX was assessed in 96-well plates, using a modified version of a previously reported procedure from Pereira et al.. […] After 5 min pre-incubation at room temperature, the reaction was started by addition of linoleic acid substrate (20 µL of a 4.18 mM solution in ethanol). The reaction was monitored at 234 nm using a multiplate reader (Multiskan Thermo Fisher Scientific Oy, Vantaa, Finland), for 3 min.

[2] = molecular target: 20S proteasome isolated from erythrocytes (Homo sapiens, UniProt P28074); test: 20S proteasome inhibition (chymotrypsin-like activity); format: biochemical; design: purified 20S proteasome isolated from erythrocytes (Enzo Life Sciences); purchased Enzo Life Sciences; host or cells: erythrocytes; details: 100 µM
Protocol: Proteasome activity was measured by adapting a method described by Silva et al.. The substrate used to study chymotrypsin-like enzyme activity was Suc-Leu-Leu-Val-Tyr-AMC and the enzyme used was purified 20S proteasome isolated from erythrocytes (Enzo Life Sciences). […] The plate was incubated at 37 °C in the dark for 2 h. […] Lactacystin was used as positive control.

[3] = test system: LPS-induced •NO production in RAW 264.7 cells; test: LPS-induced NO production in RAW 264.7 (Griess); format: cell-based, murine; details: Mus musculus, RAW264.7; RAW 264.7, LPS 1 µg/mL; read-out: IC50 (LPS-dependent •NO production)
Protocol: RAW 264.7 cells were cultured in 96-well plates (35,000 cells/well) for 24 h and then pre-treated with different concentrations of each compound. After 2 h, LPS was added (final concentration 1 µg/mL) and the plates were incubated at 37 °C, in a humidified atmosphere of 5% CO2. After 22 h, 75 µL of cell supernatant was transferred to a 96-well plate and mixed with 75 µL of Griess reagent (1% sulfanilamide and 0.1% naphthylethylenediamine dihydrochloride in 2% H3PO4). The plate was incubated at room temperature for 10 min in the dark and then the absorbance was read at 540 nm using a microplate reader (Multiskan Thermo Fisher Scientific Oy, Vantaa, Finland).

RAW 264.7 cells = test: MTT cell viability, RAW 264.7 macrophages; format: cell-based, murine; details: for cytotoxic effect on RAW 264.7 viability: up to 100 µM, 24 h
Protocol: (§1) Adenocarcinoma gastric cells (AGS; Sigma-Aldrich, St. Louis, MO, USA), murine-macrophage cell line (RAW 264.7; American Type Culture Collection, LGC Standards S.L.U., Barcelona, Spain), and human foetal lung fibroblasts (MRC-5; ECACC, Porton Down Salisbury, UK) were cultured as a monolayer at 37 °C in a humidified incubator with 5% carbon dioxide. AGS and RAW 264.7 cells were grown in DMEM, supplemented with 1% streptomycin/penicillin and 10% FBS (Gibco®). MRC-5 cells were grown in MEM, supplemented with 1% streptomycin/penicillin and 10% FBS.
(§2) Cell viability was evaluated by the MTT reduction assay. Cells were cultured in 96-well plates (15,000 cells/well for AGS, 25,000 cells/well for RAW and 20,000 cells/well for MRC-5) and allowed to attach for 24 h. After incubation with compounds for 24 h, MTT (0.5 mg/mL final concentration) was added to each well and the plate was incubated for 75 min at 37 °C. Formazan crystals were dissolved by the addition of a DMSO: isopropanol mixture (3:1) and then quantified spectrophotometrically at 570 nm using a microplate reader (Multiskan Thermo Fisher Scientific Oy, Vantaa, Finland).

AGS cells = test: MTT cell viability, AGS cells; format: cell-based; details: 24 h; for toxicity towards AGS cells: 100 µM
Protocol: as §1, §2

COX-2 = molecular target: T2, COX-2 (Homo sapiens, UniProt P35354); test: COX fluorescent inhibitor screening assay, COX-2; format: biochemical
T2 construct: purchased Cayman Chemical
T2 sequence (P35354 18-604): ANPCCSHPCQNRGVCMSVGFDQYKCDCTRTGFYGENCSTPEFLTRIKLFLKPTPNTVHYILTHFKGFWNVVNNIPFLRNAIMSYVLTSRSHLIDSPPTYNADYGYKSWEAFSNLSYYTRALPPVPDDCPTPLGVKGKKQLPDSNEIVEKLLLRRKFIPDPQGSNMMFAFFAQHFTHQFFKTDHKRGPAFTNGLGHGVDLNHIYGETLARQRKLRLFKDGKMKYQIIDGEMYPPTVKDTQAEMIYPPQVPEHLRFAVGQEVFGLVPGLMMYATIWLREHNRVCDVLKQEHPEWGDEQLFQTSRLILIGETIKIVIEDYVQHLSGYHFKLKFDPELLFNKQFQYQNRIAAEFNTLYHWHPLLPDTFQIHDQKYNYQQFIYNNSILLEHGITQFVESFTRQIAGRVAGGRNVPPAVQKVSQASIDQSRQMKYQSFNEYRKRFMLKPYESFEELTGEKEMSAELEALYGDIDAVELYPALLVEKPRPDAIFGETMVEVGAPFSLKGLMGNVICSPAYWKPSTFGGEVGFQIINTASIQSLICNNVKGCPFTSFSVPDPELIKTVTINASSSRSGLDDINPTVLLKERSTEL
Protocol: (§3) The assay was performed using the COX fluorescent inhibitor screening assay kit (Cayman chemical, MI, USA), with some modifications. […] After 5 min of incubation at room temperature, 5 µL of 10-acetyl-3,7-dihydroxyphenoxazine (ADHP) and 20 µL of a solution containing arachidonic acid (0.5 mM) and KOH (2.5 mM) were added to each well.

COX-1 = molecular target: T3, COX-1 (Ovis aries, UniProt P05979); test: COX fluorescent inhibitor screening assay, COX-1; format: biochemical
T3 construct: purchased Cayman Chemical
T3 sequence (P05979 25-600): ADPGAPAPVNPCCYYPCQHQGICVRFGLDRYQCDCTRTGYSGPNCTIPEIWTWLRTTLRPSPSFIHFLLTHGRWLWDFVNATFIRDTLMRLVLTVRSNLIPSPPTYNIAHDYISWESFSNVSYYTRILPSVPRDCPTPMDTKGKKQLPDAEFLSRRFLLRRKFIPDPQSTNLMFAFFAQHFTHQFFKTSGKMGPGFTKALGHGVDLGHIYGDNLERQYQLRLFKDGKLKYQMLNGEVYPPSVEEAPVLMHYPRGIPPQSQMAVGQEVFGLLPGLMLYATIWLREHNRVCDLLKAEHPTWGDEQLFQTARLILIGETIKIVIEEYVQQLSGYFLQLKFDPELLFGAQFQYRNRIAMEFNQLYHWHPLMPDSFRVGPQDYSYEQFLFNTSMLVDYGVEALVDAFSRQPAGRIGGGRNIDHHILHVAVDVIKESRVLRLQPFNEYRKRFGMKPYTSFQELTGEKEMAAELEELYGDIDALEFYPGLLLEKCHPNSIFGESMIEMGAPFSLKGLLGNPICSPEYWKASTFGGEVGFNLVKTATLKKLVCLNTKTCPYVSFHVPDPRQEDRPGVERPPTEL
Protocol: as §3

[4] = MTT cell viability, MRC-5 cells; format: cell-based; details: human, MRC-5 cells (human foetal lung fibroblasts)
Protocol: as §1, §2

[5] = Solubility in enzymatic assay buffer; format: physicochemical

Structure (SMILES): COc1ccc2cc(C(C)C(=O)NC(Cc3c[nH]c4ccccc34)C(=O)NC(=Cc3ccccc3)C(=O)O)ccc2c1 [Compound 3, Npx-L-Trp-Z-ΔPhe-OH]
- LOX inhibition at single concentration [1]: significantly inhibit the LOX enzyme to a similar level to naproxen
- IC50 [1]: 55.9 µM
- remaining activity at 100 µM ([2]; read-out: 20S proteasome enzyme activity remaining): 52%
- IC50 [3]: 64.7 µM
- cytotoxic effect on RAW 264.7 viability (RAW 264.7 cells): did not show any statistically significant cytotoxic effects
- toxicity towards AGS cells (AGS cells): slightly cytotoxic

Structure (SMILES): COc1ccc2cc(C(C)C(=O)NC(C)C(=O)NC(=Cc3ccccc3)C(=O)O)ccc2c1 [Compound 4, Npx-L-Ala-Z-ΔPhe-OH]
- LOX inhibition at single concentration [1]: significantly inhibit the LOX enzyme to a similar level to naproxen
- IC50 [1]: 55.7 µM
- cytotoxic effect on RAW 264.7 viability (RAW 264.7 cells): did not show any statistically significant cytotoxic effects
- inhibition at 25 µM (COX-2): 66%
- toxicity towards AGS cells (AGS cells): not toxic
- inhibition at 25 µM (COX-1): 9%

Structure (SMILES): COc1ccc2cc(C(C)C(=O)NC(CCCCN)C(=O)NC(=Cc3ccccc3)C(=O)O)ccc2c1 [Compound 5, Npx-L-Lys-Z-ΔPhe-OH]
- LOX inhibition at single concentration [1]: not able to inhibit LOX activity
- cytotoxic effect on RAW 264.7 viability (RAW 264.7 cells): small cytotoxic effect
- viability at 24 h, 100 µM [4]: ~79%
- toxicity towards AGS cells (AGS cells): slightly cytotoxic

Structure (SMILES): COc1ccc2cc(C(C)C(=O)NC(CCSC)C(=O)NC(=Cc3ccccc3)C(=O)O)ccc2c1 [Compound 6, Npx-L-Met-Z-ΔPhe-OH]
- LOX inhibition at single concentration [1]: significantly inhibit the LOX enzyme to a similar level to naproxen
- IC50 [1]: 60.3 µM
- cytotoxic effect on RAW 264.7 viability (RAW 264.7 cells): did not show any statistically significant cytotoxic effects
- toxicity towards AGS cells (AGS cells): not toxic

Now from value to compound, other results behind:

- 20S proteasome inhibition [2]: not able to inhibit the 20S proteasome
- IC50 (AGS cells; Homo sapiens, AGS): 10.9 µM
- solubility in COX assay medium ([5]; Tris-HCl pH 8.0): insoluble in the assay medium
Structure (SMILES): COC(=O)C(=Cc1ccccc1)NC(=O)C(Cc1ccc(O)cc1)NC(=O)C(C)c1ccc2cc(OC)ccc2c1 [Compound 7, Npx-L-Tyr-Z-ΔPhe-OMe]
- IC50 (RAW 264.7 cells; Mus musculus, RAW264.7, 24 h): 23.1 µM
- viability at 24 h, 100 µM [4]: ~87%
- solubility in LOX assay buffer solution ([5]; phosphate buffer pH 9.0): insolubility in the assay buffer solution

- IC50 [1]: 48.9 µM
- IC50 [3]: 84.4 µM
Structure (SMILES): CC=C(NC(=O)C(Cc1c[nH]c2ccccc12)NC(=O)C(C)c1ccc2cc(OC)ccc2c1)C(=O)O [Compound 8, Npx-L-Trp-Z-ΔAbu-OH]
- LOX inhibition at single concentration [1]: significantly inhibit the LOX enzyme to a similar level to naproxen
- cytotoxic effect on RAW 264.7 viability (RAW 264.7 cells): did not show any statistically significant cytotoxic effects
- toxicity towards AGS cells (AGS cells): not toxic
